Test results: patent US5041567A, “Antibacterial monic acid derivatives” (Beecham Group plc, priority 1982, dated 1991)
In brackets after ≈: the same amount, converted by molar mass. Where two headings read alike, the source gives them in different places.

Experiments:
[1] = system: Sarcina lutea 8340; assay: MIC against human bacteria in vitro; format: cell-based
[2] = system: Strep. agalactiae 2788-B; assay: MIC against human bacteria in vitro; format: cell-based; settings: Streptococcus agalactiae; Strep. agalactiae 2788-B; 5% chocolated horse blood agar, 18 hours; read-out: MIC
[3] = system: S. typhimurium S18; assay: MIC against veterinary bacteria in vitro; settings: Salmonella enterica, TYPHIMURIUM, 18 h
Description: (§1) The activity of the compounds of the Examples against various veterinarily important bacteria, was assayed in vitro using two-fold serial dilutions in Diagnostic Sensitivity Test Agar inoculated with 10^4 organisms.

[4] = system: M. suipneumoniae ATCC 25095; assay: MIC against mycoplasma in vitro; format: cell-based; settings: Mesomycoplasma hyopneumoniae, ATCC25095, 144 h
[5] = system: Strep. suis (group D) SPS11; assay: MIC against veterinary bacteria in vitro; settings: Streptococcus suis, 18 h
Description: as §1

[6] = system: Strep. pneumoniae CN33; assay: MIC against human bacteria in vitro; format: cell-based; settings: Streptococcus pneumoniae; Strep. pneumoniae CN33; 5% chocolated horse blood agar, 18 hours; read-out: MIC
[7] = system: M. suipneumoniae JF 435; assay: MIC against mycoplasma in vitro; format: cell-based; settings: Mesomycoplasma hyopneumoniae, JF435, 144 h
[8] = system: M. suipneumoniae NB12; assay: MIC against mycoplasma in vitro; format: cell-based; settings: Mesomycoplasma hyopneumoniae
[9] = system: S. dublin S7; assay: MIC against veterinary bacteria in vitro; settings: Salmonella enterica, S7, 18 h
Description: as §1

[10] = system: Staph. aureus W2827; assay: MIC against human bacteria in vitro; format: cell-based; settings: Staphylococcus aureus
[11] = system: E. coli NCTC 10418; assay: MIC against veterinary bacteria in vitro; settings: Escherichia coli, NCTC10418, 18 h
Description: as §1

[12] = system: M. hyorhinis ATCC 23234; assay: MIC against mycoplasma in vitro; format: cell-based; settings: Mesomycoplasma hyorhinis, ATCC23234, 144 h
[13] = system: Ps. aeruginosa NCTC 10662; assay: MIC against human bacteria in vitro; format: cell-based; settings: Pseudomonas aeruginosa
[14] = system: M. suipneumoniae UCD 1; assay: MIC against mycoplasma in vitro; format: cell-based; settings: Mesomycoplasma hyopneumoniae, UCD1, 144 h
[15] = system: M. suipneumoniae MS 16; assay: MIC against mycoplasma in vitro; format: cell-based; settings: Mesomycoplasma hyopneumoniae, MS16, 144 h
[16] = system: Strep. spp. 64/848-C; assay: MIC against human bacteria in vitro; format: cell-based
[17] = system: Haemophilus influenzae Wy21; assay: MIC against human bacteria in vitro; format: cell-based
[18] = system: Past. multocida PA2; assay: MIC against veterinary bacteria in vitro; settings: Pasteurella multocida, PA2, 18 h
Description: as §1

[19] = system: Pasteurella multocida 1633; assay: MIC against human bacteria in vitro; format: cell-based
[20] = system: Staph. aureus Oxford; assay: MIC against veterinary bacteria in vitro; settings: Staphylococcus aureus, 18 h
Description: as §1

[21] = system: M. bovigenitalium ATCC 14173; assay: MIC against mycoplasma in vitro; format: cell-based; settings: 144 h
[22] = system: M. suipneumoniae HK(2); assay: MIC against mycoplasma in vitro; format: cell-based; settings: Mesomycoplasma hyopneumoniae, 144 h
[23] = system: E. coli E1; assay: MIC against veterinary bacteria in vitro; settings: Escherichia coli, E1, 18 h
Description: as §1

[24] = system: M. pneumoniae ATCC 15492; assay: MIC against mycoplasma in vitro; format: cell-based; settings: Mycoplasmoides pneumoniae, ATCC15492, 144 h
[25] = system: Strep. agalactiae SPA1; assay: MIC against veterinary bacteria in vitro; settings: Streptococcus agalactiae, SPA1, 18 h
Description: as §1

[26] = system: Staph. aureus 152 (pen. sens); assay: MIC against veterinary bacteria in vitro; settings: Staphylococcus aureus, 18 h
Description: as §1

[27] = system: Staph. aureus Russell; assay: MIC against human bacteria in vitro; format: cell-based; settings: Staphylococcus aureus
[28] = system: Bord. bronchiseptica B09; assay: MIC against veterinary bacteria in vitro; settings: Bordetella bronchiseptica, B09, 18 h
Description: as §1

[29] = system: Erysipelothrix rhusiopathiae NCTC 8163; assay: MIC against veterinary bacteria in vitro; settings: Erysipelothrix rhusiopathiae, NCTC8163, 18 h
Description: as §1

[30] = system: Bord. bronchiseptica B08; assay: MIC against veterinary bacteria in vitro; settings: Bordetella bronchiseptica, B08, 18 h
Description: as §1

[31] = system: M. suipneumoniae NCTC 10110; assay: MIC against mycoplasma in vitro; format: cell-based; settings: Mesomycoplasma hyopneumoniae, NCTC10110, 144 h
[32] = system: E. coli ESS; assay: MIC against human bacteria in vitro; format: cell-based; settings: Escherichia coli
[33] = system: M. gallisepticum S6; assay: MIC against mycoplasma in vitro; format: cell-based; settings: Mycoplasmoides gallisepticum
[34] = system: M. suipneumoniae TAM 6N; assay: MIC against mycoplasma in vitro; format: cell-based; settings: Mesomycoplasma hyopneumoniae, TAM6N, 144 h
[35] = Haemophilus influenzae, WY21, 18 h
[36] = Micrococcus luteus, Sarcina lutea 8340, 5% chocolated horse blood agar, 18 hours, read-out: MIC
[37] = Staph. aureus W2827, 5% chocolated horse blood agar, 18 hours, read-out: MIC
[38] = NCTC10662, Ps. aeruginosa NCTC 10662, 5% chocolated horse blood agar, 18 hours, read-out: MIC
[39] = Pasteurella multocida 1633, 5% chocolated horse blood agar, 18 hours, read-out: MIC
[40] = Staph. aureus Russell, 5% chocolated horse blood agar, 18 hours, read-out: MIC
[41] = E. coli ESS, 5% chocolated horse blood agar, 18 hours, read-out: MIC

CSc1ccc(-c2cnc(/C=C(\C)C[C@@H]3OC[C@H](C[C@@H]4O[C@H]4[C@@H](C)[C@H](C)O)[C@@H](O)[C@H]3O)o2)cc1 [Example 9, 5-p-methylthiophenyl-2-(1-normon-2-yl)oxazole A]
MIC ([1]; Micrococcus luteus, 8340, 18 h): > 100 µg/mL | MIC [2]: 10 µg/mL (≈ 20.4 µM) | MIC [3]: > 80 µg/mL | MIC [4]: 0.5 µg/mL (≈ 1.02 µM) | MIC [5]: 10 µg/mL (≈ 20.4 µM) | MIC [6]: 10 µg/mL (≈ 20.4 µM) | MIC [7]: 0.5 µg/mL (≈ 1.02 µM) | MIC ([8]; NB12, 144 h): 0.5 µg/mL (≈ 1.02 µM) | MIC [9]: > 80 µg/mL | MIC ([10]; W2827, 18 h): 5 µg/mL (≈ 10.2 µM) | MIC [11]: > 80 µg/mL | MIC ([12]; M. hyorhinis ATCC 23234, 6 days, 37° C., read-out: MIC): 0.5 µg/mL (≈ 1.02 µM) | MIC ([13]; NCTC10662, 18 h): > 100 µg/mL | MIC [14]: 0.5 µg/mL (≈ 1.02 µM) | MIC [15]: 0.5 µg/mL (≈ 1.02 µM) | MIC ([16]; 18 h): 5 µg/mL (≈ 10.2 µM) | MIC [17, 35]: 50 µg/mL (≈ 102 µM) | MIC [18]: 5 µg/mL (≈ 10.2 µM) | MIC ([19]; Pasteurella multocida, 1633, 18 h): 5 µg/mL (≈ 10.2 µM) | MIC [20]: 0.625 µg/mL (≈ 1.28 µM) | MIC [21]: 0.1 µg/mL (≈ 0.204 µM) | MIC [22]: 0.5 µg/mL (≈ 1.02 µM) | MIC [23]: > 80 µg/mL | MIC [24]: 1 µg/mL (≈ 2.04 µM) | MIC [25]: 10 µg/mL (≈ 20.4 µM) | MIC [26]: 0.625 µg/mL (≈ 1.28 µM) | MIC ([27]; 18 h): 5 µg/mL (≈ 10.2 µM) | MIC [28]: 40 µg/mL (≈ 81.7 µM) | MIC [29]: 80 µg/mL (≈ 163 µM) | MIC [30]: 40 µg/mL (≈ 81.7 µM) | MIC [31]: 0.5 µg/mL (≈ 1.02 µM) | MIC ([32]; 18 h): 5 µg/mL (≈ 10.2 µM) | MIC ([33]; S6, 144 h): 1 µg/mL (≈ 2.04 µM) | MIC [34]: 0.5 µg/mL (≈ 1.02 µM)

C/C(=C\c1ncc(-c2ccc(CO)cc2)o1)C[C@@H]1OC[C@H](C[C@@H]2O[C@H]2[C@@H](C)[C@H](C)O)[C@@H](O)[C@H]1O [Example 13, 5-p-Hydroxymethylphenyl-2-(1-normon-2-yl) oxazole A]
MIC [1, 36]: 128 µg/mL (≈ 270 µM) | MIC [2]: 2 µg/mL (≈ 4.22 µM) | MIC [3]: > 80 µg/mL | MIC ([4]; M. suipneumoniae ATCC 25095, 6 days, 37° C., read-out: MIC): 0.25 µg/mL (≈ 0.528 µM) | MIC [5]: 10 µg/mL (≈ 21.1 µM) | MIC [6]: 4 µg/mL (≈ 8.45 µM) | MIC ([7]; M. suipneumoniae JF 435, 6 days, 37° C., read-out: MIC): 0.25 µg/mL (≈ 0.528 µM) | MIC ([8]; 144 h, M. suipneumoniae NB12, Friis broth, 0.9% agarose, 6 days, 37° C., read-out: MIC): 0.1 µg/mL (≈ 0.211 µM) | MIC [9]: > 80 µg/mL | MIC [10, 37]: 4 µg/mL (≈ 8.45 µM) | MIC [11]: > 80 µg/mL | MIC [12]: 0.1 µg/mL (≈ 0.211 µM) | MIC [13, 38]: > 128 µg/mL | MIC ([14]; M. suipneumoniae UCD 1, 6 days, 37° C., read-out: MIC): 0.25 µg/mL (≈ 0.528 µM) | MIC ([15]; M. suipneumoniae MS 16, 6 days, 37° C., read-out: MIC): 0.1 µg/mL (≈ 0.211 µM) | MIC ([16]; 18 h): 1 µg/mL (≈ 2.11 µM) | MIC [17, 35]: 1 µg/mL (≈ 2.11 µM) | MIC [18]: 0.312 µg/mL (≈ 0.659 µM) | MIC [19, 39]: 2 µg/mL (≈ 4.22 µM) | MIC [20]: 1.25 µg/mL (≈ 2.64 µM) | MIC [21]: 0.025 µg/mL (≈ 0.0528 µM) | MIC ([22]; M. suipneumoniae HK(2), 6 days, 37° C., read-out: MIC): 0.25 µg/mL (≈ 0.528 µM) | MIC [23]: > 80 µg/mL | MIC ([24]; M. pneumoniae ATCC 15492, 6 days, 37° C., read-out: MIC): 0.5 µg/mL (≈ 1.06 µM) | MIC [25]: 10 µg/mL (≈ 21.1 µM) | MIC [26]: 1.25 µg/mL (≈ 2.64 µM) | MIC [27, 40]: 4 µg/mL (≈ 8.45 µM) | MIC [28]: 20 µg/mL (≈ 42.2 µM) | MIC [29]: > 80 µg/mL | MIC [30]: > 80 µg/mL | MIC ([31]; M. suipneumoniae NCTC 10110, 6 days, 37° C., read-out: MIC): 0.25 µg/mL (≈ 0.528 µM) | MIC [32, 41]: 2 µg/mL (≈ 4.22 µM) | MIC ([33]; 144 h, M. gallisepticum S6, 6 days, 37° C., read-out: MIC): 0.5 µg/mL (≈ 1.06 µM) | MIC ([34]; M. suipneumoniae TAM 6N, 6 days, 37° C., read-out: MIC): 0.25 µg/mL (≈ 0.528 µM)

C/C(=C\c1ncc(-c2ccc(S(C)(=O)=O)cc2)o1)C[C@@H]1OC[C@H](C[C@@H]2O[C@H]2[C@@H](C)[C@H](C)O)[C@@H](O)[C@H]1O [Example 10]
MIC [1, 36]: > 128 µg/mL | MIC [2]: 8 µg/mL (≈ 15.3 µM) | MIC [3]: > 80 µg/mL | MIC [4]: 0.025 µg/mL (≈ 0.0479 µM) | MIC [5]: 10 µg/mL (≈ 19.2 µM) | MIC [6]: 8 µg/mL (≈ 15.3 µM) | MIC [7]: 0.05 µg/mL (≈ 0.0959 µM) | MIC ([8]; NB12, 144 h): 0.05 µg/mL (≈ 0.0959 µM) | MIC [9]: > 80 µg/mL | MIC [10, 37]: 8 µg/mL (≈ 15.3 µM) | MIC [11]: > 80 µg/mL | MIC [12]: 0.025 µg/mL (≈ 0.0479 µM) | MIC [13, 38]: > 128 µg/mL | MIC [14]: 0.05 µg/mL (≈ 0.0959 µM) | MIC [15]: 0.025 µg/mL (≈ 0.0479 µM) | MIC ([16]; Strep. spp. 64/848-C, 5% chocolated horse blood agar, 18 hours, read-out: MIC): 4 µg/mL (≈ 7.67 µM) | MIC ([17]; Haemophilus influenzae Wy21, 5% chocolated horse blood agar, 18 hours, read-out: MIC): 2 µg/mL (≈ 3.83 µM) | MIC [18]: 1.25 µg/mL (≈ 2.4 µM) | MIC [19, 39]: 8 µg/mL (≈ 15.3 µM) | MIC [20]: 2.5 µg/mL (≈ 4.79 µM) | MIC [21]: 0.025 µg/mL (≈ 0.0479 µM) | MIC [22]: 0.05 µg/mL (≈ 0.0959 µM) | MIC [23]: > 80 µg/mL | MIC [24]: 0.1 µg/mL (≈ 0.192 µM) | MIC [25]: 2.5 µg/mL (≈ 4.79 µM) | MIC [26]: 2.5 µg/mL (≈ 4.79 µM) | MIC [27, 40]: 8 µg/mL (≈ 15.3 µM) | MIC [28]: 40 µg/mL (≈ 76.7 µM) | MIC [29]: > 80 µg/mL | MIC [30]: > 80 µg/mL | MIC [31]: 0.05 µg/mL (≈ 0.0959 µM) | MIC [32, 41]: 8 µg/mL (≈ 15.3 µM) | MIC ([33]; S6, 144 h): 0.1 µg/mL (≈ 0.192 µM) | MIC [34]: 0.05 µg/mL (≈ 0.0959 µM)
